Read-outs that look alike come from different tables or passages of the source.
Experiments:
[1] = target: T1, human FLT4 (Homo sapiens, UniProt P35916); assay: FLT4 kinase assay (DELFIA enzyme inhibition); format: biochemical
T1 construct: a construct expressing the human FLT4 (789-1207) with an amino terminal GST tag; host or cells: Sf9 insect cells (baculovirus)
Procedure, shortened: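 Read-out is DELFIA: biotinylated MET Tyr1253-derived peptide captured on Neutravidin, phosphotyrosine detected by Eu-antibody time-resolved fluorescence. Enzyme is Sf9-expressed GST-FLT4 (789-1207), reacting 30 min at room temperature before EDTA stop. IC50 derived from plotted % inhibition.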

[2] = target: T2, human Aurora A (Homo sapiens, UniProt O14965); assay: Aurora A kinase assay (DELFIA enzyme inhibition); format: biochemical
T2 construct: Histidine tag (N); host or cells: Sf9 insect cells (baculovirus)
T2 sequence (O14965 1-403): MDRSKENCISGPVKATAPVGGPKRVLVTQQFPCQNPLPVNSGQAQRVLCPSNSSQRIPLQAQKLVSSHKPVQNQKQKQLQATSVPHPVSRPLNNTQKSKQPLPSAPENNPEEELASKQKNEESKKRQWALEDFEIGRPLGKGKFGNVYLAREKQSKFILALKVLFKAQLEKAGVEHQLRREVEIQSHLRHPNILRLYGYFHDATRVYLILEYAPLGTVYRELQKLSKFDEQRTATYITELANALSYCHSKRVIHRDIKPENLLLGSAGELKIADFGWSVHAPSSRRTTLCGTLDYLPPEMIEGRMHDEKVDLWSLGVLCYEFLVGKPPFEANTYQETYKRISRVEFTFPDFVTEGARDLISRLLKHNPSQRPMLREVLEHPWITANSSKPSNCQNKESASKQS
Procedure, shortened: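 DELFIA read-out (time-resolved Eu fluorescence, 620 nm emission) after Neutravidin capture of biotinylated peptide substrate and antibody detection. Reaction: Ni-agarose-purified Aurora A, 30 min at room temperature, stopped with 100 mM EDTA.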

T1 sequence (P35916 789-1207): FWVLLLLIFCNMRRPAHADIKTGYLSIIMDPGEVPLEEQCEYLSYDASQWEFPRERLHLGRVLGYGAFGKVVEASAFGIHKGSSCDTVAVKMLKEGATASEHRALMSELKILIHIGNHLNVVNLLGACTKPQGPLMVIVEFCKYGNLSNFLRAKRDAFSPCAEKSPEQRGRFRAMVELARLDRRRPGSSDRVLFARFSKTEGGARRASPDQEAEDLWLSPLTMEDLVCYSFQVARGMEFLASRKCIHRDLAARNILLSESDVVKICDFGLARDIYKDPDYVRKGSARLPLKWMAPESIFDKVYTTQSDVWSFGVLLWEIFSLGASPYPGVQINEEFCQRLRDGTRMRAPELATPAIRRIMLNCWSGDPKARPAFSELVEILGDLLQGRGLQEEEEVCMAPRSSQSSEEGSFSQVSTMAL

Structure (SMILES) | IC50 ([1]; read-out: FLT4 IC50) | IC50 ([2]; read-out: Aurora A IC50) | IC50 [1] | IC50 [2]
NC(=O)c1nc(-c2c(F)cccc2F)oc1Nc1ccc(C(=O)N[C@@H]2CCCNC2)cc1 [Example Q-53, (R)-2-(2,6-difluorophenyl)-5-(4-(piperidin-3-ylcarbamoyl)phenylamino)oxazole-4-carboxamide] | < 10 µM | < 10 µM | – | –
NC(=O)c1nc(-c2c(F)cccc2F)oc1Nc1ccc(C(=O)N[C@H]2CCCNC2)cc1 [Example Q-54, (S)-2-(2,6-difluorophenyl)-5-(4-(piperidin-3-ylcarbamoyl)phenylamino)oxazole-4-carboxamide] | < 10 µM | < 10 µM | – | –
NC(=O)c1nc(-c2c(F)cccc2F)oc1Nc1ccc(C(=O)NC[C@@H]2CCCNC2)cc1 [Example Q-55, (R)-5-(4-((piperidin-3-ylmethyl)carbamoyl)phenylamino)-2-(2,6-difluorophenyl)oxazole-4-carboxamide] | < 10 µM | < 10 µM | – | –
NC(=O)c1nc(-c2cccc3[nH]ncc23)oc1Nc1ccc(N2CCNCC2)cc1 [Example Q-59, 2-(1H-indazol-4-yl)-5-(4-(piperazin-1-yl)phenylamino)oxazole-4-carboxamide] | < 10 µM | < 10 µM | – | –
COc1ccc(Nc2nc(C(N)=O)c(-c3ccc(OC)cc3)o2)cc1 [Example R-4, 5-(4-methoxyphenyl)-2-(4-methoxyphenylamino)oxazole-4-carboxamide] | < 10 µM | < 100 µM | – | –
COc1ccc(-c2oc(Nc3cccc(C)c3)nc2C(N)=O)cc1 [Example R-6, 2-(m-toluidino)-5-(4-methoxyphenyl)oxazole-4-carboxamide] | < 10 µM | < 10 µM | – | –
Cc1ccccc1Nc1nc(C(N)=O)c(-c2ccc(N3CCNCC3)cc2)o1 [Example R-10, 2-(o-toluidino)-5-(4-(piperazin-1-yl)phenyl)oxazole-4-carboxamide] | < 10 µM | < 10 µM | – | –
NC(=O)c1nc(Nc2ccnn2Cc2ccccc2)oc1-c1ccc(N2CCNCC2)cc1 [Example R-18, 2-(1-benzyl-1H-pyrazol-5-ylamino)-5-(4-(piperazin-1-yl)phenyl)oxazole-4-carboxamide] | < 10 µM | < 10 µM | – | –
NC(=O)c1nc(-c2c(F)cccc2F)oc1-c1ccc(OCC2CCNCC2)cc1 [Example S-14, 2-(2,6-difluorophenyl)-5-(4-(piperidin-4-ylmethoxy)phenyl)oxazole-4-carboxamide] | < 10 µM | < 10 µM | – | –
NC(=O)c1nc(-c2c(F)cccc2F)oc1-c1ccc(OCC2CNCCO2)cc1 (centres unmarked) [Example S-15, 2-(2,6-difluorophenyl)-5-(4-(morpholin-2-ylmethoxy)phenyl)oxazole-4-carboxamide] | < 10 µM | < 10 µM | – | –
CCCN(CCO)CCOc1ccc(-c2oc(-c3c(F)cccc3F)nc2C(N)=O)cc1 [Example S-16, 2-(2,6-difluorophenyl)-5-(4-(2-((2-hydroxyethyl)(propyl)amino)ethoxy)phenyl)oxazole-4-carboxamide] | < 10 µM | < 10 µM | – | –
NC(=O)c1nc(-c2c(F)cccc2F)oc1-c1ccc(OCCN2CCCC(O)C2)cc1 (centres unmarked) [Example S-17, 2-(2,6-difluorophenyl)-5-(4-(2-(3-hydroxypiperidin-1-yl)ethoxy)phenyl)oxazole-4-carboxamide] | < 10 µM | < 10 µM | – | –
NC(=O)c1nc(-c2c(F)cccc2F)oc1-c1ccc(OCCN2CCC(CO)CC2)cc1 [Example S-18, 2-(2,6-difluorophenyl)-5-(4-(2-(4-(hydroxymethyl)piperidin-1-yl)ethoxy)phenyl)oxazole-4-carboxamide] | < 10 µM | < 10 µM | – | –
CCN(CCO)CCOc1ccc(-c2oc(-c3c(F)cccc3F)nc2C(N)=O)cc1 [Example S-19, 2-(2,6-difluorophenyl)-5-(4-(2-(ethyl(2-hydroxyethyl)amino)ethoxy)phenyl)oxazole-4-carboxamide] | < 10 µM | < 10 µM | – | –
CNCCOc1ccc(-c2oc(-c3c(F)cccc3F)nc2C(N)=O)cc1 [Example S-20, 2-(2,6-difluorophenyl)-5-(4-(2-(methylamino)ethoxy)phenyl)oxazole-4-carboxamide] | < 10 µM | < 10 µM | – | –
NC(=O)c1nc(-c2c(F)cccc2F)oc1-c1ccc(OCCNCCO)cc1 [Example S-21, 2-(2,6-difluorophenyl)-5-(4-(2-(2-hydroxyethylamino)ethoxy)phenyl)oxazole-4-carboxamide] | < 10 µM | < 10 µM | – | –
NC(=O)c1nc(-c2c(F)cccc2F)oc1Nc1ccc(C(=O)N2CCOCC2)cc1 [Example U-2, 2-(2,6-difluorophenyl)-5-(4-(morpholine-4-carbonyl)phenylamino)oxazole-4-carboxamide] | < 10 µM | < 10 µM | – | –
CNCCNC(=O)c1ccc(Nc2oc(-c3c(F)cccc3F)nc2C(N)=O)cc1 [Example U-3, 5-(4-((2-(methylamino)ethyl)carbamoyl)phenylamino)-2-(2,6-difluorophenyl) oxazole-4-carboxamide] | < 10 µM | < 10 µM | – | –
CNCCCNC(=O)c1ccc(Nc2oc(-c3c(F)cccc3F)nc2C(N)=O)cc1 [Example U-4, 5-(4-((3-(methylamino)propyl)carbamoyl)phenylamino)-2-(2,6-difluorophenyl) oxazole-4-carboxamide] | < 10 µM | < 10 µM | – | –
NC(=O)c1nc(-c2c(F)cccc2F)oc1Nc1ccc(C(=O)N[C@@H]2CCNC2)cc1 [Example U-6, (R)-2-(2,6-difluorophenyl)-5-(4-(pyrrolidin-3-ylcarbamoyl)phenylamino)oxazole-4-carboxamide] | < 10 µM | < 10 µM | – | –
NC(=O)c1nc(-c2c(F)cccc2F)oc1Nc1ccc(C(=O)N[C@H]2CCNC2)cc1 [Example U-7, (S)-2-(2,6-difluorophenyl)-5-(4-(pyrrolidin-3-ylcarbamoyl)phenylamino)oxazole-4-carboxamide] | < 10 µM | < 10 µM | – | –
CN(C)CCNC(=O)c1ccc(Nc2oc(-c3c(F)cccc3F)nc2C(N)=O)cc1 [Example U-8, 5-(4-((2-(dimethylamino)ethyl)carbamoyl)phenylamino)-2-(2,6-difluorophenyl) oxazole-4-carboxamide] | < 10 µM | < 10 µM | – | –
NC(=O)c1nc(-c2c(F)cccc2F)oc1Nc1ccc(C(=O)NCCN2CCOCC2)cc1 [Example U-9, 5-(4-((2-morpholinoethyl)carbamoyl)phenylamino)-2-(2,6-difluorophenyl)oxazole-4-carboxamide] | < 10 µM | < 10 µM | – | –
NC(=O)c1nc(-c2c(F)cccc2F)oc1Nc1ccc(C(=O)NC2CN3CCC2CC3)cc1 (centres unmarked) [Example U-10, 2-(2,6-difluorophenyl)-5-(4-(quinuclidin-3-ylcarbamoyl)phenylamino)oxazole-4-carboxamide] | – | – | < 10 µM | < 10 µM
CN1C2CCC1CC(NC(=O)c1ccc(Nc3oc(-c4c(F)cccc4F)nc3C(N)=O)cc1)C2 (centres unmarked) [Example U-11, 5-(4-((8-methyl-8-aza-bicyclo[3.2.1]octan-3-yl)carbamoyl)phenylamino)-2-(2,6-difluorophenyl)oxazole-4-carboxamide] | – | – | < 10 µM | < 10 µM

From US9187465B2, “Oxazole tyrosine kinase inhibitors” (Sareum Limited, priority 2007, dated 2015)
